Reference: PubChem BioAssay (NCI)
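Where inhibition never reached the appropriate level, the endpoint shown equals the highest concentration tested. Otherwise, values were interpolated linearly from a five-concentration, 48-hour dose response in 96-well plates. TGI denotes the concentration required for complete inhibition of growth.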

Experiments:
Experiment in all cases: NCI tumour cell line growth inhibition, 48 h
KM20L2 colon = tested on: KM20L2 colon
M19-MEL melanoma = tested on: M19-MEL melanoma
SN12C renal = tested on: SN12C renal
HCT-15 colon = tested on: HCT-15 colon
U251 CNS = tested on: U251 CNS
HOP-62 NSCLC = tested on: HOP-62 NSCLC
RXF 393 renal = tested on: RXF 393 renal
TK-10 renal = tested on: TK-10 renal
HCC-2998 colon = tested on: HCC-2998 colon
HCT-116 colon = tested on: HCT-116 colon
SK-MEL-5 melanoma = tested on: SK-MEL-5 melanoma
DMS 114 small cell lung = tested on: DMS 114 small cell lung
K-562 leukemia = tested on: K-562 leukemia
NCI-H23 lung = tested on: NCI-H23 lung
SNB-19 CNS = tested on: SNB-19 CNS
OVCAR-8 ovarian = tested on: OVCAR-8 ovarian
RXF-631 renal = tested on: RXF-631 renal
LOX IMVI melanoma = tested on: LOX IMVI melanoma
EKVX NSCLC = tested on: EKVX NSCLC
NCI-H460 lung = tested on: NCI-H460 lung
SK-MEL-28 melanoma = tested on: SK-MEL-28 melanoma
HOP-18 NSCLC = tested on: HOP-18 NSCLC
RPMI-8226 leukemia = tested on: RPMI-8226 leukemia
SW-620 colon = tested on: SW-620 colon
HT29 colon = tested on: HT29 colon
MOLT-4 leukemia = tested on: MOLT-4 leukemia
IGROV1 ovarian = tested on: IGROV1 ovarian
OVCAR-3 ovarian = tested on: OVCAR-3 ovarian
SF-268 CNS = tested on: SF-268 CNS
A549 NSCLC = tested on: A549 NSCLC
LXFL 529 NSCLC = tested on: LXFL 529 NSCLC
DMS 273 small cell lung = tested on: DMS 273 small cell lung
UO-31 renal = tested on: UO-31 renal
COLO 205 colon = tested on: COLO 205 colon
ACHN renal = tested on: ACHN renal
SK-OV-3 ovarian = tested on: SK-OV-3 ovarian
HL-60(TB) leukemia = tested on: HL-60(TB) leukemia
OVCAR-4 ovarian = tested on: OVCAR-4 ovarian
XF 498 CNS = tested on: XF 498 CNS
NCI-H522 lung = tested on: NCI-H522 lung
UACC-62 melanoma = tested on: UACC-62 melanoma
DLD-1 colon = tested on: DLD-1 colon
CCRF-CEM leukemia = tested on: CCRF-CEM leukemia
786-0 renal = tested on: 786-0 renal
SR leukemia = tested on: SR leukemia
M14 melanoma = tested on: M14 melanoma
HOP-92 NSCLC = tested on: HOP-92 NSCLC
UACC-257 melanoma = tested on: UACC-257 melanoma
CAKI-1 renal = tested on: CAKI-1 renal
SK-MEL-2 melanoma = tested on: SK-MEL-2 melanoma
MALME-3M melanoma = tested on: MALME-3M melanoma
SF-295 CNS = tested on: SF-295 CNS
SF-539 CNS = tested on: SF-539 CNS
A498 renal = tested on: A498 renal
KM12 colon = tested on: KM12 colon
SNB-75 CNS = tested on: SNB-75 CNS

Measured: TGI

COC(=O)NN/C=C(\C=Nc1ccccc1)[N+](=O)[O-]
not listed: CAKI-1 renal | SK-MEL-2 melanoma | MALME-3M melanoma | SF-295 CNS | SF-539 CNS | A498 renal | KM12 colon | SNB-75 CNS
> 100 µM: all other assays above

COC(=O)[C@H]1CC(=O)C=C2CCCC21 (stereo not given in full)
not listed: KM20L2 colon | HOP-18 NSCLC | ACHN renal | SR leukemia
> 100 µM: all other assays above
